Results as given in patent publication US20110245334A1, “USE OF RACEMATES OF PINOCEMBRIN IN PREPARING MEDICAMENTS FOR TREATING STROKE” (CSPC Zhonggi Pharmaceutical Technology (Shijiazhuang) Co. …, priority 2008, published 2011).

Columns and labels:
[1] = antihistamine, oral administration; cited from earlier work
SD rats = assay: Acute toxicity, single intravenous injection; details: single intravenous injection in SD rats
tMCAO rats [2] = assay: Neurobehavioral examination (Bederson's score), tMCAO time window study; format: in vivo, rat; details: 2 hours ischemia and 24 hours reperfusion
Description: (§1) 1. In the test, transient middle cerebral artery occlusion (tMCAO) model of rats was adopted. The reperfusion was performed after focal cerebral ischemia for 2 hours so as to inspect therapeutic time window of pinocembrin after focal cerebral ischemia. The rats were administered by pinocembrin racemate (1 mg/kg, 5 mg/kg, intravenous injection) after reperfusion 1 hour, 4 hours and 6 hours (i.e., ischemia 3 hour, 6 hours and 8 hours). (R)-pinocembrin and (S)-pinocembrin (1 mg/kg, 5 mg/kg, intravenous injection) were administered after reperfusion 1 hour and 4 hours (i.e., ischemia 3 hour and 6 hours). The therapeutic time windows of these drugs in focal cerebral ischemia were assessed by studying their effects to neurological symptom scores, infarct sizes and brain water contents during 24 hours after tMCAO.
The CCA and ICA were clipped with artery clips. Two No. 0 surgery lines were litigated on the ECA distal end with 2-3 mm spacing and then the vascular between the two surgery lines was cut. The distal end of ECA was pulled until it formed a straight line with the ICA. An incision was cut on ECA and a nylon line was inserted through ECA into ICA. After the artery clip was loosen, the nylon line was pushed on into the brain through ICA and inserted in depth of 18.5±0.5 mm when resistance was felt slightly. The nylon line reached a smaller anterior cerebral artery through the beginning of MCA and then the blood flow obstruction in right MCA was established. the animals were kept in anesthesia during the obstruction. After 2 hours of obstruction, the nylon line was gently pulled out to ECA stub to form reperfusion. During the surgery process, the animals were irradiated by table lamp of 100 W to maintain the body temperature. The room temperature was kept in range of 23-25° C.
(§2) 2.4 Experimental Grouping and Administration • Sham operation group (intravenous injection of normal saline after 3 hours of ischemia); • Model group (intravenous injection of 50 mg/kg hydroxypropyl β-cyclodextrin after 3 hours of ischemia); • Nimodipine group (1 mg/kg, administered after 3 hours of ischemia); • Pinocembrin racemate group (1 mg/kg, 5 mg/kg, administered after 3, 6 and 8 hours of ischemia); • (R)-pinocembrin group (1 mg/kg, 5 mg/kg, administered after 3 and 6 hours of ischemia); • (S)-pinocembrin group (1 mg/kg, 5 mg/kg, administered after 3 and 6 hours of ischemia).
(§3) First administration was performed by intravenous injection, and intraperitoneal injection was carried out once 12 hours later with a dose 1.5 times of that for intravenous injection.
Neurobehavioral examination was performed respectively when the animals were awake after surgery and before the animals were put to death. Bederson's score was adopted (see details in Example 2, 1. Neurobehavioral Examination).

plasma ET-1 = assay: Plasma ET-1 (radioimmunoassay) in SHRSP; format: in vivo, rat; set-up: ET-1 content: unit not given here; details: SHRSP rats; for ET-1 content: plasma
Description: 5) Blood of 2 mL was dropped rapidly in a cuvette with 30 μL 7.5% EDTA-2Na and 40 μL aprotinin and mixed. After centrifuged for 5 min at 3000 rpm, plasma ET-1 in liquid supernatant was determined by isotope radioimmunoassay.

tMCAO rats [3] = assay: Infarct volume (TTC), tMCAO time window study; format: in vivo, rat; details: 2 hours ischemia and 24 hours reperfusion
Description: as §1, §2, §3
After neurobehavioral scoring, the rats were put to death by decollation and their brain tissues were taken out quickly and put into a refrigerator of −20° C. 10 min later, the brain tissues were moved to an environment of room temperature. After the olfactory bulb, cerebellar and lower brain stem were resected, the brain tissue was cut into six continuous coronal slices with an interval of 2 mm. Then the brain slices were quickly put into 5 ml solution containing 2% TTC and incubated at a constant temperature of 37° C. and in a condition of darkness for 30 min. During the time, the brain slices were tipped every 5 min. […] Every group of brain slices were put in order and photographed. The photographs were processed by an image analysis system and the infarct areas in each slice were calculated. The infarct volume of each slice was calculated via multiplying the infarct area by thickness of slice (2 mm), and the infarct volume was the sum of infarct volumes of all slices. The infarct volume percentage was expressed as: sick-side infarct volume/total sick-side brain volume.

plasma fibrinogen = assay: Plasma fibrinogen assay (ELISA) in SHRSP; format: in vivo, rat; set-up: Plasma fibrinogen: unit not given here; details: SHRSP rats
Description: The mixture was centrifuged for 15 min at 3000 rpm and plasma fibrinogen in liquid supernatant was determined by euzymelinked immunosorbent assay (ELISA).

tMCAO rats [4] = assay: Brain water content, tMCAO time window study; format: in vivo, rat; details: 2 hours ischemia and 24 hours reperfusion
Description: as §1, §2, §3
The wet weight of each animal's brain was weighted before sliced. After staining, the brain slices were dried at 105° C. for 24 hours, and the dry weight of each animal's brain was weighted. The brain water contents of animals of various groups were compared. Brain water content=(brain wet weight−brain dry weight)/brain wet weight×100%.

tMCAO rats [5] = assay: Therapeutic time window in focal cerebral ischemia-reperfusion injured rats; format: in vivo, rat; details: tMCAO rats, 1 mg/kg, 5 mg/kg
Description: as §1, §2, §3

in vivo = details: SD, rat, iv
MCAO rats = assay: Nissl staining of hippocampal neurons, MCAO; format: in vivo, rat; details: hippocampus, cerebral ischemia 24 hours
Description: After cerebral ischemia for 24 hours, the rats were anesthetized by intraperitoneal injection of 10% Chloral hydrate. After perfused via heart with heparinized normal saline for 10 min and 4% paraformaldehyde for 30 min, the brain tissue was taken out and moved in 4% paraformaldehyde to fix, then cut into coronal sections (6 μm) by a frozen section machine, and one section was taken out in every 20 sections to stain. The stained sections were expanded on a slide glass treated by polylysine, and then preserved in a refrigerator at −40° C.
Nissel staining: (1) the frozen section was taken out from the refrigerator and dried in room temperature; (2) put into acetone to fix for 30 min and washed by PBS for 3 times, 3 min every time; (3) dipped for 20-30 min in toluidine blue dye and then washed by water for 15 min; (4) dehydrated by ethanol in gradient manner and vitrified by xylene and mounted by a neutral gum; (5) observed under a light microscope and photographed for analysis; (6) 4 frozen sections in roughly same position for each rat were taken out and 5 vision fields in hippocampus for each section were observed under 200× light microscope (totally 20 visions per rat). The cells in vision fields were counted. The averages of ratios of the numbers in the administration groups to the number in the model group were calculated for statistical analysis.

[6] = initially injected after 3 hours of ischemia
[7] = initially injected after 6 hours of ischemia

CC(CN1c2ccccc2Sc2cccnc21)N(C)C (racemic) [isothipendyl racemate, isothipendyl]
efficacy relative to (+)-isomer [1]: 2.5 times
efficacy relative to (−)-isomer [1]: 1.4 times

O=C1C[C@H](c2ccccc2)Oc2cc(O)cc(O)c21 [(R)-pinocembrin]
LD50 (SD rats): 347.8 (257.4˜466.3) mg/kg
Neurobehavioral value (tMCAO rats [2]; 1 mg/kg, 3 h): 1.42 ± 0.82
Neurobehavioral value (tMCAO rats [2]; 1 mg/kg, 6 h): 1.86 ± 0.57
Neurobehavioral value (tMCAO rats [2]; 5 mg/kg, 3 h): 1.39 ± 0.72
Neurobehavioral value (tMCAO rats [2]; 5 mg/kg, 6 h): 1.83 ± 0.49
ET-1 content (plasma ET-1; 3 mg/kg): 235.4 ± 35.2
ET-1 content (plasma ET-1; 10 mg/kg): 228.4 ± 16.9
ET-1 content (plasma ET-1; 30 mg/kg): 198.1 ± 35.4
Infarct percentage (%) (tMCAO rats [3]; 1 mg/kg, 3 h): 15.69 ± 7.82 %
Infarct percentage (%) (tMCAO rats [3]; 1 mg/kg, 6 h): 26.33 ± 12.67%
Infarct percentage (%) (tMCAO rats [3]; 5 mg/kg, 3 h): 15.66 ± 7.88 %
Infarct percentage (%) (tMCAO rats [3]; 5 mg/kg, 6 h): 25.89 ± 13.57%
Plasma fibrinogen (plasma fibrinogen; 3 mg/kg): 2.99 ± 0.13
Plasma fibrinogen (plasma fibrinogen; 10 mg/kg): 2.83 ± 0.18
Plasma fibrinogen (plasma fibrinogen; 30 mg/kg): 2.74 ± 0.47
Brain water content (%) (tMCAO rats [4]; 1 mg/kg, 3 h): 82.18 ± 0.98 %
Brain water content (%) (tMCAO rats [4]; 1 mg/kg, 6 h): 83.36 ± 1.12%
Brain water content (%) (tMCAO rats [4]; 5 mg/kg, 3 h): 81.20 ± 1.03 %
Brain water content (%) (tMCAO rats [4]; 5 mg/kg, 6 h): 83.77 ± 1.07%
effect on neurobehavioral injury, infarct volume and cerebral edema (tMCAO rats [5]; [6]): significant effects
effect on neurobehavioral injury, infarct volume and cerebral edema (tMCAO rats [5]; [7]): not effective

O=C1C[C@@H](c2ccccc2)Oc2cc(O)cc(O)c21 [(S)-pinocembrin, reference compound]
LD50 (in vivo): 375 mg/kg
Neurobehavioral value (tMCAO rats [2]; 1 mg/kg, 3 h): 1.29 ± 0.72
Neurobehavioral value (tMCAO rats [2]; 1 mg/kg, 6 h): 1.79 ± 0.63
Neurobehavioral value (tMCAO rats [2]; 5 mg/kg, 3 h): 1.59 ± 0.77
Neurobehavioral value (tMCAO rats [2]; 5 mg/kg, 6 h): 1.77 ± 0.70
effect on plasma ET-1 content (plasma ET-1; compared with the model group): no activity
ET-1 content (plasma ET-1; 3 mg/kg): 243 ± 19.5
ET-1 content (plasma ET-1; 10 mg/kg): 240 ± 16.8
ET-1 content (plasma ET-1; 30 mg/kg): 240.8 ± 24.3
Infarct percentage (%) (tMCAO rats [3]; 1 mg/kg, 3 h): 15.32 ± 7.98 %
Infarct percentage (%) (tMCAO rats [3]; 1 mg/kg, 6 h): 28.06 ± 12.98%
Infarct percentage (%) (tMCAO rats [3]; 5 mg/kg, 3 h): 15.78 ± 7.28 %
Infarct percentage (%) (tMCAO rats [3]; 5 mg/kg, 6 h): 25.97 ± 12.75%
Plasma fibrinogen (plasma fibrinogen; 3 mg/kg): 3.00 ± 0.32
Plasma fibrinogen (plasma fibrinogen; 10 mg/kg): 2.99 ± 0.61
Plasma fibrinogen (plasma fibrinogen; 30 mg/kg): 2.81 ± 0.57
effect on content of plasma fibrinogen (plasma fibrinogen; compared with the model group): no activity
Brain water content (%) (tMCAO rats [4]; 1 mg/kg, 3 h): 81.95 ± 1.00 %
Brain water content (%) (tMCAO rats [4]; 1 mg/kg, 6 h): 82.96 ± 0.98%
Brain water content (%) (tMCAO rats [4]; 5 mg/kg, 3 h): 81.87 ± 1.12 %
Brain water content (%) (tMCAO rats [4]; 5 mg/kg, 6 h): 83.37 ± 1.27%
effect on neurobehavioral injury, infarct volume and cerebral edema (tMCAO rats [5]; [6]): significant effects
effect on neurobehavioral injury, infarct volume and cerebral edema (tMCAO rats [5]; [7]): not effective

pinocembrin racemate
increase of nerve cells in comparison with the model group (MCAO rats; 3 mg/kg): 11.5±8.9%
increase of nerve cells in comparison with the model group (MCAO rats; 10 mg/kg): 36.8±4.9%
increase of nerve cells in comparison with the model group (MCAO rats; 30 mg/kg): 51.7±6.6%
